In PubChem BioAssay AID248 (DTP/NCI, 2004):
Values joined by “and” are separate entries in the source; they are usually repeats but may differ in a detail not shown here. Identical values can stand only once. Inconclusive results and toxic doses are left out.

Test system: L1210 leukemia ip in BDF1 mice, survival T/C
Assay: NCI In Vivo Anticancer Drug Screen. Data for tumor model L1210 Leukemia (intraperitoneal) in B6D2F1 (BDF1) mice
Conditions: endpoint: mean survival time, higher = longer survival
In short: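 Tumor cells were implanted, animals were treated, and survival was followed. The result divides the treated measurement by the vehicle-control measurement.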

[1] = dose: 100.0 mg/kg/injection, schedule: Q04DX002 (ip), vehicle: saline
[2] = dose: 200.0 mg/kg/injection, schedule: Q04DX002 (ip), vehicle: saline
[3] = dose: 100.0 mg/kg/injection, schedule: Q01DX001 (ip), vehicle: Klucel (hydroxypropylcellulose) (HPC)
[4] = dose: 400.0 mg/kg/injection, schedule: Q01DX001 (ip), vehicle: Klucel (hydroxypropylcellulose) (HPC)
[5] = dose: 100.0 mg/kg/injection, schedule: Q01DX009 (ip), vehicle: Klucel (hydroxypropylcellulose) (HPC)
[6] = dose: 200.0 mg/kg/injection, schedule: Q01DX009 (ip), vehicle: Klucel (hydroxypropylcellulose) (HPC)
[7] = dose: 400.0 mg/kg/injection, schedule: Q01DX009 (ip), vehicle: Klucel (hydroxypropylcellulose) (HPC)
[8] = dose: 100.0 mg/kg/injection, schedule: Q01DX001 (ip), vehicle: saline
[9] = dose: 200.0 mg/kg/injection, schedule: Q01DX001 (ip), vehicle: saline
[10] = dose: 400.0 mg/kg/injection, schedule: Q01DX001 (ip), vehicle: saline

## COc1ccc(C=O)cc1OCc1ccccc1
dose: 100.0 mg/kg/injection, schedule: Q01DX009 (ip), vehicle: water
  T/C: 96 % of control
dose: 100.0 mg/kg/injection, schedule: Q04DX003 (ip), vehicle: water
  T/C: 100 % of control
dose: 200.0 mg/kg/injection, schedule: Q01DX009 (ip), vehicle: water
  T/C: 96 % of control
dose: 200.0 mg/kg/injection, schedule: Q04DX003 (ip), vehicle: water
  T/C: 96 % of control
dose: 400.0 mg/kg/injection, schedule: Q01DX009 (ip), vehicle: water
  T/C: 102 % of control
dose: 400.0 mg/kg/injection, schedule: Q04DX003 (ip), vehicle: water
  T/C: 100 % of control

## NCCNC12CC3CC(CC(C3)C1)C2
[1]
  T/C: 113 % of control
[2]
  T/C: 107 % of control

## CC1CC(C)(C)N/C(=C/C(=O)N2Cc3cc4ccccc4nc3C2)O1 (stereo not drawn)
[3]
  T/C: 86 % of control
[4]
  T/C: 88 % of control

## CCCc1c(N)nc(N)nc1C(=O)O
[3]
  T/C: 94 % of control
[5]
  T/C: 100 % of control
dose: 200.0 mg/kg/injection, schedule: Q01DX001 (ip), vehicle: Klucel (hydroxypropylcellulose) (HPC)
  T/C: 94 % of control
[6]
  T/C: 109 % of control
[4]
  T/C: 92 % of control
[7]
  T/C: 86 % of control

## O=C(Nc1ccc(C2=NCCN2)cc1)c1cccc(C(=O)Nc2ccc(C3=NCCN3)cc2)c1Cl
dose: 4.5 mg/kg/injection, schedule: Q01DX Z (ip), vehicle: carboxymethylcellulose (CMC)
  T/C: 105 % of control
dose: 9.0 mg/kg/injection, schedule: Q01DX Z (ip), vehicle: carboxymethylcellulose (CMC)
  T/C: 117 % of control
dose: 18.0 mg/kg/injection, schedule: Q01DX Z (ip), vehicle: carboxymethylcellulose (CMC)
  T/C: 155 % of control
dose: 25.0 mg/kg/injection, schedule: Q01DX Z (ip), vehicle: carboxymethylcellulose (CMC)
  T/C: 211 % of control
dose: 37.0 mg/kg/injection, schedule: Q01DX Z (ip), vehicle: carboxymethylcellulose (CMC)
  T/C: 184 % of control
dose: 62.0 mg/kg/injection, schedule: Q01DX Z (oral), vehicle: carboxymethylcellulose (CMC)
  T/C: 109 % of control
dose: 125.0 mg/kg/injection, schedule: Q01DX Z (oral), vehicle: carboxymethylcellulose (CMC)
  T/C: 118 % of control
dose: 250.0 mg/kg/injection, schedule: Q01DX Z (oral), vehicle: carboxymethylcellulose (CMC)
  T/C: 118 % of control
dose: 500.0 mg/kg/injection, schedule: Q01DX Z (oral), vehicle: carboxymethylcellulose (CMC)
  T/C: 98 % of control

## C=CN1CCCC1=O (tested in a mixture with another compound)
[8]
  T/C: 101 % of control [middle of 4 runs]
dose: 100.0 mg/kg/injection, schedule: Q01DX009 (ip), vehicle: saline with Tween-80
  T/C: 92 % of control and 97 % of control
[9]
  T/C: 101 % of control [middle of 4 runs]
dose: 200.0 mg/kg/injection, schedule: Q01DX009 (ip), vehicle: saline with Tween-80
  T/C: 93 % of control and 100 % of control
[10]
  T/C: 101 % of control and 89 % of control and 98 % of control
dose: 400.0 mg/kg/injection, schedule: Q01DX009 (ip), vehicle: saline with Tween-80
  T/C: 93 % of control and 96 % of control

## Cc1ccc(N=Nc2ccc(N(C)C)cc2)cc1
[5]
  T/C: 90 % of control
[6]
  T/C: 92 % of control
[7]
  T/C: 90 % of control

## CCOC(=O)C(O)(C#CC(C)C)C1CCCC1 (stereo not drawn)
[8]
  T/C: 107 % of control
[9]
  T/C: 105 % of control
[10]
  T/C: 102 % of control

## CCOC(=O)C(O)C1(Cl)CCC(C(C)(C)C)CC1 (stereo not drawn)
[1]
  T/C: 103 % of control
[2]
  T/C: 106 % of control
dose: 400.0 mg/kg/injection, schedule: Q04DX002 (ip), vehicle: saline
  T/C: 106 % of control

## COc1cc2c(cc1OC)-c1ncnc(-c3ccccc3)c1C2
dose: 100.0 mg/kg/injection, schedule: Q04DX003 (ip), vehicle: Klucel (hydroxypropylcellulose) (HPC)
  T/C: 95 % of control
dose: 200.0 mg/kg/injection, schedule: Q04DX003 (ip), vehicle: Klucel (hydroxypropylcellulose) (HPC)
  T/C: 94 % of control
dose: 400.0 mg/kg/injection, schedule: Q04DX003 (ip), vehicle: Klucel (hydroxypropylcellulose) (HPC)
  T/C: 101 % of control
